Assay results from article PMC7618597, “Dual Nurr1/RXR agonism of valerenic acid and synthetic mimetics enables dimer-selective Nurr1 modulation” (ACS medicinal chemistry letters, 2025).

Target: T1, Nurr1:RXR heterodimer (DR5) (Homo sapiens, UniProt P19793+P43354)
T1 construct: full-length human nuclear receptor Nurr1 encoded by pcDNA3.1 -hNurr1-NE; full length human RXRα encoded by pSG5-hRXR; host or cells: HEK293T
Assay: Full-length Nurr1 reporter gene assay, heterodimer response element DR5
Format: cell-based
Settings: read-out: EC50, activation of the Nurr1:RXR heterodimer (DR5)
Method: Based on these findings, we next determined the effects of 2 and 3 on Nurr1 activity in a cellular setting using reporter constructs for the NGFI-B response element (NBRE), the Nur response element (NurRE), and the direct repeat 5 (DR5)[36]. All three response elements are robustly activated by common Nurr1 agonists[4],[31]. […]
Reporter gene assays for full-length human Nurr1 and RXR. Modulation of full-length human Nurr1 (NR4A2) was studied using pRL-SV40 (1.5 ng/well reporter plasmid) and the previously described4 reporter plasmids pFR-Luc-NBRE (100 ng/well reporter plasmid), pFR-Luc-NurRE (50 ng/well reporter plasmid) or pFR-Luc-DR5 (50 ng/well reporter plasmid). […] Five hours after transfection, the cells wer e incubated with the test compounds in Opti-MEM supplemented with penicillin (100 U/mL), streptomycin (100 μg/mL), and 0.1% DMSO for 15 h before luciferase activity was measured using the Dual-Glo Luciferase Assay System (Promega) according to the manufacturer’s protocol on a Tecan Spark luminometer (Tecan Deutschland GmbH, Germany). Firefly luminescence was divided by Renilla luminescence and multiplied by 1000, resulting in relative light units (RLU) to normalize for transfection efficiency and cell growth. […]

T1 sequence (P43354 whole entry): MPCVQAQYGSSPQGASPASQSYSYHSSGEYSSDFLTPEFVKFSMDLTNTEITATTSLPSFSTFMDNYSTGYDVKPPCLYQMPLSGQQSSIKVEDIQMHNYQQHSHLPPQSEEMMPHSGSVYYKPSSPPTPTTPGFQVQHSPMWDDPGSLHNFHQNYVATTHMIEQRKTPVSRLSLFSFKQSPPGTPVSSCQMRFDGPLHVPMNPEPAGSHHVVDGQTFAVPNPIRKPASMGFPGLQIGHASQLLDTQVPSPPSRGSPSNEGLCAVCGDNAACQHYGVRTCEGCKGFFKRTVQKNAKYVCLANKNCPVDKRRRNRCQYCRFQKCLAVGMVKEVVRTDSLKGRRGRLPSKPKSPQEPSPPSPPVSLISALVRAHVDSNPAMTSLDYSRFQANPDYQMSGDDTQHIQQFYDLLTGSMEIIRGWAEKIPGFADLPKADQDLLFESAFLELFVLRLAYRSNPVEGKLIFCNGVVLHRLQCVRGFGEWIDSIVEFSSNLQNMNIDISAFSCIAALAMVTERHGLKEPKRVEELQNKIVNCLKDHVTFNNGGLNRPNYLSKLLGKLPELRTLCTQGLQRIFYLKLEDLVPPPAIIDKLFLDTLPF
T1 sequence (P19793 whole entry): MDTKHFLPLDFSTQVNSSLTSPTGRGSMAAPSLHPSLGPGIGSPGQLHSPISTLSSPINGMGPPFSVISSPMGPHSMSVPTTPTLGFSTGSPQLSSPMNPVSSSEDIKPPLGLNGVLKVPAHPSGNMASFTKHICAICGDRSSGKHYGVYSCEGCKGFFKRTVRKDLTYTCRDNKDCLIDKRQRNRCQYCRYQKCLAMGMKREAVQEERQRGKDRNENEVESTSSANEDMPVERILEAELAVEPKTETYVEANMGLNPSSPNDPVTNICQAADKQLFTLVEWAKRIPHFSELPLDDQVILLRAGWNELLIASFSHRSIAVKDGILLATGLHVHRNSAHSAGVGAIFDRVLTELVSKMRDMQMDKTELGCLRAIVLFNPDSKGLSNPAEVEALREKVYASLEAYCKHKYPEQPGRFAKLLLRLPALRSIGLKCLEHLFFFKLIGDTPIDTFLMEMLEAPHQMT

Structure (SMILES) | EC50
Cc1c2c(n(-c3ccc(CC(=O)O)cc3)c1C)CCC(F)(F)C2 [compound 2] | 1 µM
Cc1c(C)n(-c2ccc(CC(=O)O)cc2)c2ccc(F)cc12 [compound 3] | 0.6 µM
